Common to all, as to assay type: cell-based, human
Experiment [1] relates to CD8+CD45RClow/- Tregs. The experiment can be described thus: Tregs associated markers expression at day 21 after 7 d culture in IS-supplemented medium. The note with it: Example 4, FIG. 4, tacrolimus 2 ng/ml, compared to drug free medium. The protocol: Methods: Fresh blood was taken from 1 healthy volunteer, PBMCs were isolated by Ficoll centrifugation, washed in PBS, adjusted at 2×10^8 PBMC/ml in PBS-FCS-EDTA and were incubated with anti-CD3-PeCy7, anti CD4-PerCPCy5.5 and anti-CD45RC FITC 30′ 4° C. Cells were washed with PBS-FCS-EDTA, filtered on 60 μm tissue, labeled with Dapi and FACS Aria sorted on lymphocyte morphology, exclusion of doublet cells, and DAPI-CD3^+CD4^−CD45RC^low/− expression. […] At days 7, Tregs were harvested, counted, washed, and plated at 5×10^5Tregs/well/3 ml in p6 plate previously coated with anti-CD3 (OKT3 clone, 1 μg/ml in PBS, 1 ml/well, 1 h at 37° C. then washed with PBS 3 times), in RPMI1640 medium supplemented with 10% AB serum, Penicillin (100 U/ml), Streptomycin (0.1 mg/ml), Sodium pyruvate (1 mM), Glutamine (2 mM), Hepes Buffer (1 mM), non-essential amino acids (1×), IL-2 (1000 U/ml) and IL-15 (10 ng/ml), anti-CD28 mAbs (clone CD28.2, soluble, 1 μg/ml). […] Tregs were analyzed at day 21 for survival/expansion yield and phenotype.

Experiment [2] concerns CD8+CD45RClow/- Tregs. The experiment can be described thus: Expansion of CD8+CD45RClow/- Tregs with anti-CD3/anti-CD28 in medium supplemented with immunosuppressive drugs (14 days). The note with it: rapamycin 45 ng/ml, methylprednisolone 500 pg/ml, mycophenolate mofetil 1 μg/ml; for expansion yield: Example 3, FIG. 3, cyclosporine A 45 ng/ml, tacrolimus 2 ng/ml, vs no IS drug.
Experimental: CD8^+CD45RC^low/− Tregs from fresh or thawed PBMCs were seeded at 3×10^5/ml in RPMI1640 medium supplemented with 10% AB serum, Penicillin (100 U/ml), Streptomycin (0.1 mg/ml), Sodium pyruvate (1 mM), Glutamine (2 mM), Hepes Buffer (1 mM), non-essential amino acids (1×), IL-2 (1000 U/ml) and IL-15 (10 ng/ml), and were stimulated with coated anti-CD3 mAb (1 μg/ml), soluble anti-CD28 mAb (1 μg/ml) and/or allogeneic APCs at 1:4 Tregs: APCs ratio. At day 7, expanded cells were diluted at 1.5×10^5/ml and stimulated again with coated anti-CD3 and soluble anti-CD28 mAbs (1 μg/ml each). […] At day 14, expanded Tregs were washed with PBS before use. Suppressive activity was tested on CD8^+CD45RC^low/− Tregs expanded more than 10 fold in 7 days. For long-term expansion, CD8^+CD45RC^low/− Tregs and CD4^+CD25^highCD127^low/− Tregs were stimulated again with coated anti-CD3 (1 μg/ml) and soluble anti-CD28 MAbs (1 μg/ml) at days 14 and 21 and IL-2 and IL-15 cytokines were freshly added every 2 days from day 7 to 28. Culture medium 1× cytokines (IL-2 (1000 U/ml) and IL-15 (10 ng/ml)) was added when required.

In experiment [3] the test system is CD8+CD45RClow/- Tregs. The experiment can be described thus: Suppressive activity of drug-expanded Tregs on CD4+CD25- effector T cells stimulated with allogeneic APCs (CFSE). The note with it: for suppressive activity of Tregs: Example 3, FIG. 3, Tregs harvested at day 14, 1:1:1 Tregs:Teff:APCs, same drug concentrations, vs no IS drug. The protocol: CD8^+CD45RC^low/− Tregs from fresh or thawed PBMCs were seeded at 3×10^5/ml in RPMI1640 medium supplemented with 10% AB serum, Penicillin (100 U/ml), Streptomycin (0.1 mg/ml), Sodium pyruvate (1 mM), Glutamine (2 mM), Hepes Buffer (1 mM), non-essential amino acids (1×), IL-2 (1000 U/ml) and IL-15 (10 ng/ml), and were stimulated with coated anti-CD3 mAb (1 μg/ml), soluble anti-CD28 mAb (1 μg/ml) and/or allogeneic APCs at 1:4 Tregs: APCs ratio. At day 7, expanded cells were diluted at 1.5×10^5/ml and stimulated again with coated anti-CD3 and soluble anti-CD28 mAbs (1 μg/ml each). […] At day 14, expanded Tregs were washed with PBS before use. Suppressive activity was tested on CD8^+CD45RC^low/− Tregs expanded more than 10 fold in […]. For long-term expansion, CD8^+CD45RC^low/− Tregs and CD4^+CD25^highCD127^low/− Tregs were stimulated again with coated anti-CD3 (1 μg/ml) and soluble anti-CD28 MAbs (1 μg/ml) at days 14 and 21 and IL-2 and IL-15 cytokines were freshly added every 2 days from day 7 to 28. Culture medium 1× cytokines (IL-2 (1000 U/ml) and IL-15 (10 ng/ml)) was added when required.
We tested the effect of immunosuppressive drugs (at concentrations used in the clinic) on CD8^+CD45RC^low/− Tregs survival 7 days following the 14 days expansion (FIG. 1) or on the expansion yield and suppressive function score of CD8^+CD45RC^low/− Tregs during the 14 days expansion (FIG. 3D).
Methods: Fresh blood was taken from 1 healthy volunteer, PBMCs were isolated by Ficoll centrifugation, washed in PBS, adjusted at 2×10^8 PBMC/ml in PBS-FCS-EDTA and were incubated with anti-CD3-PeCy7, anti CD4-PerCPCy5.5 and anti-CD45RC FITC 30′ 4° C. Cells were washed with PBS-FCS-EDTA, filtered on 60 μm tissue, labeled with Dapi and FACS Aria sorted on lymphocyte morphology, exclusion of doublet cells, and DAPI-CD3^+CD4^−CD45RC^low/− expression. […] At days 10 and 12, cytokines were freshly added. Expanded Tregs were harvested at day 14 for suppressive activity assessment. […] After 5 days culture, Teff proliferation was analyzed by CFSE analysis in DAPI^−CD4±CD3^+ T cells.

For `C=CC[C@@H]1/C=C(\C)C[C@H](C)C[C@H](OC)[C@H]2O[C@@](O)(C(=O)C(=O)N3CCCC[C@H]3C(=O)O[C@H](/C(C)=C/[C@@H]3CC[C@@H](O)[C@H](OC)C3)[C@H](C)[C@@H](O)CC1=O)[C@H](C)C[C@@H]2OC` [Tacrolimus, tacrolimus], the “IFNg expression by Tregs” value in the experiment on CD8+CD45RClow/- Tregs [1] is listed as “significantly decreased”. Moreover, the expansion yield entry in the experiment on CD8+CD45RClow/- Tregs [2] was “improved”. For the same compound, the “suppressive activity of Tregs” value in the experiment with CD8+CD45RClow/- Tregs [3] is reported as “improved”.
On to `COc1c(C)c2c(c(O)c1C/C=C(\C)CCC(=O)OCCN1CCOCC1)C(=O)OC2` [mycophenolate mofetil], for which the expansion fold entry in the experiment with CD8+CD45RClow/- Tregs [2] (Example 1, FIG. 3D, drugs added alone during 14 days or subsequently (day 0-7, then day 7-14), vs no immunosuppressor (NT)) was “inhibited the expansion by rapamycin”. In addition, the expansion yield result with CD8+CD45RClow/- Tregs [2] is listed as “deleterious”. Further, the suppression capacity entry in the experiment with CD8+CD45RClow/- Tregs [3] (Example 1, FIG. 3D, Tregs expanded 14 days with drugs alone or subsequently, vs no immunosuppressor (NT)) is on record as “decreased suppression”. For the same compound, the “suppressive activity of Tregs” value in the experiment with CD8+CD45RClow/- Tregs [3] is given as “deleterious”.
